Measured values taken from US11932629B2, “KDM1A inhibitors for the treatment of disease” (Imago Biosciences, Inc., priority 2018, dated 2024).

target: LSD1 (Homo sapiens, UniProt O60341); assay: LSD1 fluorescence coupling enzyme assay (HRP/Amplex Red), 10-dose IC50 mode; format: biochemical; conditions: 10-dose IC50 mode, 3-fold serial dilution in duplicate starting at 100 μM; 10 μM histone H3(1-21)K4me2 peptide substrate; read-out: RB LSD1 ave
Procedure: Compounds were tested in a 10-dose IC50 mode fluorescence coupling enzyme assay with 3-fold serial dilution in duplicate starting at 100 μM. The production of FAD-dependent H2O2 as a result of demethylase activity of LSD1 on 10 μM histone H3(1-21)K4me2 peptide substrate was measured by coupling with HRP and Amplex Red to yield resorufin (fluorescence measured at Ex/Em=535/590 nm on EnVision, Perkin Elmer).

SMILES	IC50 [nM]
O=c1[nH]cc(CCCN[C@@H]2C[C@H]2c2ccccc2)nc1N1CCS(=O)(=O)CC1 [Example 9, 3-(1,1-Dioxidothiomorpholino)-5-(3-(((1R,2S)-2-phenylcyclopropyl)amino)propyl)pyrazin-2(1H)-one]	6
O=C1CN(c2nc(CCCN[C@@H]3C[C@H]3c3ccc(F)cc3)c[nH]c2=O)CCN1 [Example 48, 5-[3-([(1R,2S)-2-(4-fluorophenyl)cyclopropyl]amino)propyl]-3-[3-oxopiperazin-1-yl]pyrazin-2(1H)-one]	15
O=c1c(N2CCNCC2)nc(CCCN[C@@H]2C[C@H]2c2ccc(F)cc2)cn1-c1ccc(-n2ccnn2)cc1 [Example 27, 1-[4-(1H-1,2,3-triazol-1-yl)phenyl]-5-[3-([(1R,2S)-2-(4-fluorophenyl)-cyclopropyl]amino)propyl]-3-[piperazin-1-yl]pyrazin-2(1H)-one]	17
CN1CCN(c2nc(CCCN[C@@H]3C[C@H]3c3ccc(F)cc3)c[nH]c2=O)CC1=O [Example 41, 5-[3-([(1R,2S)-2-(4-fluorophenyl)cyclopropyl]amino)propyl]-3-[4-methyl-3-oxopiperazin-1-yl]pyrazin-2(1H)-one]	24
O=c1[nH]cc(CCCN[C@@H]2C[C@H]2c2ccc(F)cc2)nc1N1CCS(=O)(=O)CC1 [Example 32, 3-[1,1-Dioxidothiomorpholino]-5-[3-([(1R,2S)-2-(4-fluorophenyl)cyclopropyl]amino)propyl]pyrazin-2(1H)-one]	9
O=c1c(N2CCNCC2)nc(CCCN[C@@H]2C[C@H]2c2ccc(F)cc2)cn1-c1ccc(F)cc1 [Example 26, 1-[4-Fluorophenyl]-5-[3-([(1R,2S)-2-(4-fluorophenyl)cyclopropyl]amino)propyl]-3-(piperazin-1-yl)pyrazin-2(1H)-one]	4
O=c1[nH]cc(CCCN[C@@H]2C[C@H]2c2ccc(F)cc2)nc1N1CCC1 [Example 5, 3-[Azetidin-1-yl]-5-[3-([(1R,2S)-2-(4-fluorophenyl)cyclopropyl]amino)propyl]-pyrazin-2(1H)-one]	12
O=c1c(N2CCNCC2)nc(CCCN[C@@H]2C[C@H]2c2ccc(F)cc2)cn1-c1ccc(-c2ncccn2)cc1 [Example 28, 5-[3-([(1R,2S)-2-(4-fluorophenyl)cyclopropyl]amino)propyl]-3-[piperazin-1-yl]-1-[4-(pyrimidin-2-yl)phenyl]pyrazin-2(1H)-one]	6
O=c1c(N2CCS(=O)(=O)CC2)nc(CCCN[C@@H]2C[C@H]2c2ccc(F)cc2)cn1C1CC1 [Example 8, 1-Cyclopropyl-3-[1,1-dioxidothiomorpholino]-5-[3-([(1R,2S)-2-(4-fluorophenyl)cyclopropyl]amino)propyl]pyrazin-2(1H)-one]	48
CS(=O)(=O)N1CCN(c2nc(CCCN[C@@H]3C[C@H]3c3ccc(F)cc3)c[nH]c2=O)CC1 [Example 3, 5-[3-([(1R,2S)-2-(4-fluorophenyl)cyclopropyl]amino)propyl]-3-[4-(methylsulfonyl)piperazin-1-yl]pyrazin-2(1H)-one]	7
O=C(O)C1CCN(c2nc(CCCN[C@@H]3C[C@H]3c3ccc(F)cc3)c[nH]c2=O)CC1 [Example 10, 1-[6-(3-[([1R,2S]-2-[4-fluorophenyl]cyclopropyl)amino]propyl)-3-oxo-3,4-dihydropyrazin-2-yl]piperidine-4-carboxylic acid]	300
O=c1[nH]cc(CCCN[C@@H]2C[C@H]2c2ccc(F)cc2)nc1N1CCOCC1 [Example 4, 5-[3-([(1R,2S)-2-(4-fluorophenyl)cyclopropyl]amino)propyl]-3-morpholinopyrazin-2(1H)-one]	7
O=C1CN(c2nc(CCCN[C@@H]3C[C@H]3c3ccc(F)cc3)cn(Cc3ccccc3)c2=O)CCN1 [Example 46, 1-benzyl-5-[3-([(1R,2S)-2-(4-fluorophenyl)cyclopropyl]amino)propyl]-3-[3-oxopiperazin-1-yl]pyrazin-2(1H)-one]	7
CN(C)S(=O)(=O)c1ccc(-n2cc(CCCN[C@@H]3C[C@H]3c3ccc(F)cc3)nc(N3CCNCC3)c2=O)cc1 [Example 14, 4-[5-(3-[([1R,2S]-2-[4-fluorophenyl]cyclopropyl)amino]propyl)-2-oxo-3-(piperazin-1-yl)pyrazin-1(2H)-yl]-N,N-dimethylbenzenesulfonamide]	10
N#Cc1ccc(-n2cc(CCCN[C@@H]3C[C@H]3c3ccc(F)cc3)nc(N3CC4(COC4)C3)c2=O)cc1 [Example 44, 4-[5-(3-[([1R,2S]-2-[4-fluorophenyl]cyclopropyl)amino]propyl)-2-oxo-3-(2-oxa-6-azaspiro[3.3]heptan-6-yl)pyrazin-1(2H)-yl]benzonitrile]	6
CN(C)S(=O)(=O)c1ccc(-n2cc(CCCN[C@@H]3C[C@H]3c3ccc(F)cc3)nc(N3CCN(S(C)(=O)=O)CC3)c2=O)cc1 [Example 30, 4-[5-(3-[[(1R,2S)-2-(4-Fluorophenyl)cyclopropyl]amino]propyl)-3-(4-methanesulfonylpiperazin-1-yl)-2(1H)-oxopyrazin-1-yl]-N,N-dimethylbenzene-1-sulfonamide]	2
O=c1[nH]cc(CCCN[C@@H]2C[C@H]2c2ccc(F)cc2)nc1N1CCNCC1 [Example 31, 5-[3-([(1R,2S)-2-(4-fluorophenyl)cyclopropyl]amino)propyl]-3-[piperazin-1-yl]pyrazin-2(1H)-one]	4
CN1CCN(c2nc(CCCN[C@@H]3C[C@H]3c3ccc(F)cc3)c[nH]c2=O)CC1 [Example 2, 5-[3-([(1R,2S)-2-(4-fluorophenyl)cyclopropyl]amino)propyl] 3-[4-methylpiperazin-1-yl]-pyrazin-2(1H)-one]	28
O=c1c(N2CCNCC2)nc(CCCN[C@@H]2C[C@H]2c2ccc(F)cc2)cn1-c1ccc(-c2cccnn2)cc1 [Example 29, 5-[3-([(1R,2S)-2-(4-fluorophenyl)cyclopropyl]amino)propyl]-3-[piperazin-1-yl]-1-[4-(pyridazin-3-yl)phenyl]pyrazin-2(1H)-one]	2
O=c1c(-c2cn[nH]c2)nc(CCCN[C@@H]2C[C@H]2c2ccc(F)cc2)cn1-c1ccc(F)cc1 [Example 36, 1-[4-fluorophenyl]-5-[3-([(1R,2S)-2-(4-fluorophenyl)cyclopropyl]amino)propyl]-3-[1H-pyrazol-4-yl]pyrazin-2(1H)-one]	13
